# Reference: patent publication US20160304970A1, “GENE BIOMARKER TO DIAGNOSE METASTIC LIVER CANCER AND METHODS FOR TARGETING THE SAME” (University of Southern California, priority 2015, published 2016)
# What was measured:
# CD133 (+) Huh7 cells [1] = test: In vivo tumorigenicity, CD133 (+) Huh7 cells in NOG mice; design: species or system mouse
# Protocol: The TUNEL staining was performed according to the manufacturer's instructions (4810-30-K, TREVIGEN). In brief, paraffin-embedded tumor sections from each group were de-paraffinized, re-hydrated, and washed twice in PBS. Samples were covered with Proteinase K solution for 30 minutes at room temperature and then washed two times in deionized water. Slides were immersed in quenching solution for 5 minutes at room temperature and then washed in PBS. Slides were incubated in TdT labeling buffer for 5 minutes, immersed with labeling reaction mix, and incubated at 37° C. for 1 hour in a humidity chamber. Samples were immersed in TdT stop buffer for 5 minutes and then washed twice in deionized water for 5 minutes each at room temperature. Samples were covered with Strep-HRP solution and incubated for 10 minutes at 37° C. and washed twice in PBS. Samples were incubated in DAB solution for 5 minutes and then washed in deionized water several times. The samples were counterstained with Methyl Green and mounted on slides for observation.
# CD133 was conjugated to the terminal amine functionality on a polyethylene glycol block of polylactide-polyethylene glycol (PLA-PEG) as previously described (Swaminathan et al., 2013). PLGA (30 mg) was dissolved in 1 ml chloroform containing ATRA (6 mg). An oil-in-water emulsion was formed by emulsifying the polymer drug solution in 6 ml of 2.5% w/v aqueous PVA solution by sonication (Sonicator®XL, Misonix, N.Y.) for 5 minutes in an ice bath. The PLA-PEG-CD133 conjugate was dissolved in chloroform (8 mg/100 μl) and added to the oil-in-water emulsion with stirring. The emulsion was stirred for 18 hours at ambient conditions followed by 2 hours under vacuum to remove residual chloroform. Nanoparticles were recovered by ultracentrifugation (35,000 rpm for 35 minutes at 4° C.; OptimaTMLE-80K, Beckman, Palo Alta, Calif.) and washed three times with deionized water to remove excess PVA and unencapsulated drugs. The nanoparticle suspension was then lyophilized (Labconco, FreeZone 4.5, Kansas City, Mo.). Before injection, the lyophilized nanoparticles were re-dissolved in PBS and filtered with a 0.22 micron filter.
# A half million freshly sorted CD133 (+) TICs were suspended in 100 μl of Matrigel™ (BD) and injected subcutaneously into NOD/Shi-scid/IL-2Rγ^null(NOG) mice, six mice per group. After the tumor volume reached 100 mm^3, animals received one intravenous dose of CD133-conjugated RA nanoparticle (5 μg/ml) and SAHA (0.5 μg/ml) daily. The animals were monitored regularly for tumor growth and survival every day. All animals work was performed according to national and international guidelines. Animal studies were based on a protocol approved by the Institutional Animal Care and Use Committee at University of Southern California.
# CD133 (+) Huh7 cells [2] = test: Anchorage-independent growth assay in soft agar; type: cell-based, human; conditions: retinoic acid 5 μg/ml, SAHA 0.5 μg/ml; 2 weeks
# Protocol: Freshly sorted CD133 (+)/(−) Huh7 cells were mixed with 0.35% agarose containing 1000 cells per well in culture medium with retinoic acid (5 μg/ml), SAHA (0.5 μg/ml), or a combination of both. After 2 weeks, the colony numbers were counted.
# [3] = system: Huh7, Hep3B, HepG2, human CSCs and mouse CSCs; test: Combination dose determination, cell viability of HCC cells; type: cell-based
# Protocol: Freshly sorted CD133 (+) Huh7 or mouse TICs were plated in 100 μl of medium containing 5000 cells per well in a 96-well plate. After 16 hours, 0.5 μl of a 2 μg/ml, 1 μg/ml, 0.2 μg/ml, 0.1 μg/ml, 0.02 μg/ml, or 0.01 μg/ml compound was added to each well in triplicate, resulting in a 10 μg/ml, 5 μg/ml, 1 μg/ml, 0.5 μg/ml, 0.1 μg/ml, and 0.05 μg/ml final concentration for most compounds, respectively. After 48 hours, the cells were either measured for cell viability by Cell-Glo® Reagent (Promega), or fixed with 1% PFA (paraformaldehyde) and stained with DAPI for high-throughput screening.
# CD133 (+) Huh7 cells [4] = test: Tumor spheroid formation assay; type: cell-based, human; conditions: CD133 (+) group; ATRA 5 μg/ml, SAHA 0.5 μg/ml; 2 weeks
# Protocol: Freshly sorted CD133(+)/(−) Huh7 cells were plated in a low binding culture plate (NUNC 145397) containing 100 cells per well in 100 μl of culture medium with ATRA (5 μg/ml), SAHA (0.5 μg/ml), or a combination of both. After 2 weeks, colony numbers were counted.
# Nanog = test: Nanog-GFP reporter cell screening; type: cell-based, mouse; conditions: TICs with lentivirus Nanog-GFP reporter
# Protocol: The Nanog-GFP liver cancer stem cell line was transduced with pGreenZeo-Nanog transcriptional reporter lentivirus vector (System Biosciences SR10031VA-1). The transduced cells were positively selected with zeomycin (10 μg/ml) and further sorted for the GFP-high population (˜20% of total population) for drug screening. Nanog-GFP liver cancer stem cells were then seeded in 100 μl medium containing 5000 cells per well in a 96-well plate. After 16 hours, 0.5 μl of a […] compound was added to each well, resulting in a 10 μg/ml final concentration for most compounds. After 12 hours, the cells were fixed with 1% Paraformadehyde and stained with DAPI; compounds were screened in duplicate. The GFP and DAPI images were acquired using a BD Pathway Bioimaging Systems instrument. Z-score was calculated from the data using the formula z=(X−u)/s.d., where u is the mean, s.d. is the standard deviation of the whole population and X is the sample value calculated based on the ratio of GFP intensity to DAPI intensity. The z-score of selected hits must be less than −1.0. The average of z-score of vehicle control is 2.0±1.04.
# patient-derived TICs = test: Subcutaneous xenograft of patient-derived TICs in NSG mice; type: in vivo, mouse; conditions: no ATRA, i.p.
# Protocol: To establish prognostic biomarkers for the best combination chemotherapy, five different patient-derived TICs were tested for responses as xenografts in NSG mice for the best combination chemotherapy based on mutation/transcriptome subtypes. Anti-tumorigenic ability by ATRA+SAHA targeting TICs encapsulated with SAHA was validated (Table 3). […] As placebo treatment, solvent (DMSO) in an equal total volume (0.2 ml/mouse) was injected. Tumor growth kinetics was studied. Combination of ATRA with SAHA further inhibited the self-renewal abilities of TICs in vivo (FIG. 17E).
# PTEN = PTEN 3′-UTR luciferase reporter and western blot of PTEN-FOXO pathway; type: cell-based; conditions: FIG. 47D
compound,measurement,setting,value
"O=C(CCCCCCC(=O)Nc1ccccc1)NO [SAHA, suberoylanilide hydroxamic acid]",tumor growth,"CD133 (+) Huh7 cells [1]; ATRA 5 μg/ml in CD133 antibody-conjugated nanoparticles, SAHA 0.5 μg/ml, after 4 days of treatment",did not reduce or even promote tumor growth
same,"tumor morphology, hematoxylin and eosin stained sections","CD133 (+) Huh7 cells [1]; NOG mice, CD133 (+) Huh7 tumors",did not induce cell death of tumor cells
same,"reduction of colony numbers, anchorage independent growth in soft agar",CD133 (+) Huh7 cells [2],50%
same,cell growth / viability in vitro,[3],failed to reduce cell growth in vitro
same,"reduction of colony numbers, tumor spheroid formation",CD133 (+) Huh7 cells [4],66%
same,Nanog expression,Nanog,suppressed Nanog expression
same,"anti-tumorigenic ability, % (animals/total)",patient-derived TICs; SAHA 8 mg/kg (human: 300 mg),10% (2/20)
same,"anti-tumorigenic ability, % (animals/total)",patient-derived TICs; SAHA 10 mg/kg (human: 400 mg),5% (1/20)
same,"anti-tumorigenic ability, % (animals/total)",patient-derived TICs; SAHA 12 mg/kg (human: 500 mg),10% (2/20)
same,luciferase-PTEN 3′-UTR reporter activity,PTEN,increased
